We go through 1 compound from patent US7482367B2, “Substituted benzimidazoles and methods of their use” (Novartis Vaccines and Diagnostics, Inc., priority 2005, dated 2009).

Structures are written as SMILES. Where two headings read alike, the source gives them in different places. A value given as a limit tells only on which side of the number the result lay.

The nature of data set [1]: Plasma protein binding. Type of data set: in vitro ADME.
In data set [2] the test system is human tumor isolate #4. Briefly: cells. The note with it: Pancreatic tumor, K-Ras.
Data set [3] is classed as in vivo, mice. The note with it: at target plasma concentration, corrected for protein binding.
For data set [4], the system named is HT-29 (cell line). Briefly: cells. The conditions noted are these: Homo sapiens, HT-29, 168 h.
The test system of data set [5] is human tumor isolated #7. Briefly: tissue or blood.
The subject of data set [6] is human tumor isolate #5. The conditions noted are these: Colorectal tumor, K-Ras.
For data set [7], the system named is WM1799 (cell line). Briefly: cells. The note with it: WM-1799, 168 h.
The test system of data set [8] is human tumor isolate #6. Briefly: cells.
In data set [9] the test system is human tumor isolate #2. Briefly: cells.
Data set [10] relates to human tumor isolate #4. The conditions noted are these: Pancreatic tumor, K-Ras.
For data set [11], the system named is CHL-1 (wild-type Raf, wild-type Ras). The note with it: CHL-1 cells; 0.1 μM to 10 μM; 4 hours of incubation.
Data set [12] relates to Colo205 (cell line). Briefly: cells. The note with it: Homo sapiens, COLO 205, 168 h.
For data set [13], the system named is SKMEL-28 (mutant B-Raf V600E). Briefly: cells. The note with it: Homo sapiens, SK-MEL-28, read-out: pERK inhibition EC50.
Data set [14] has as its system human tumor isolate #1. Briefly: cells.
Data set [15] relates to SKMEL-2 (wild-type Raf, mutant N-Ras). The note with it: SKMEL-2 cells; 0.1 μM to 10 μM; 4 hours of incubation.
Data set [16] deals with HT-29 (B-Raf V600E) colorectal carcinoma tumors. The conditions noted are these: HT29, q2 d × 14, oral.
The format of data set [17] is in vivo, Nu/Nu mice. The conditions noted are these: for Mean body weight loss on day 28: 100 mg/kg per dose. The protocol:
Therefore, the most efficacious dosage of 100 mg/kg was further evaluated as described below.

Data set [18] relates to human tumor isolate #3. In words: cells.
For data set [19], the system named is human tumor isolate #5. In words: cells. The note with it: Colorectal tumor, K-Ras.

For orientation: EC50 means the concentration at which the effect is half-maximal.

Turning to `Cn1c(Nc2ccc(C(F)(F)F)cc2)nc2cc(Oc3ccnc(-c4ncc(C(F)(F)F)[nH]4)c3)ccc21` [Example 1, {1-Methyl-5-[2-(5-trifluoromethyl-1H-imidazol-2-yl)-pyridin-4-yloxy]-1H-benzoimidazol-2-yl}-(4-trifluoromethyl-phenyl)-amine], in data set [1], the “protein bound in plasma” value is given as “greater than 99.9%”. Also, the half-maximal effective concentration (EC50) in data set [2] was approximately 1000 nM; in data set [4] it was 26 nM; in data set [5] it was more than 1000 nM; in [6] it was 1200 nM; in data set [7], less than 9.8 nM; in data set [8], more than 1000 nM. The EC50 was determined as 200 nM in [9]; 1270 nM in [10]; 130 nM in data set [12]; 100 nM in data set [13]; 55 nM in data set [14]; 570 nM in [18]. The EC50 in data set [19] was approximately 1000 nM. Also, in [3], the “rough estimation of free drug concentration” value is on record as “approximately 0.135 μM”. For the same compound, the “inhibition of Raf downstream signaling (MEK phosphorylation)” value in data set [11] and in [15] was “potent inhibitor of Raf downstream signaling” each time. The figures for the TGI/Regression in [16] (10 mg/kg) and in data set [16] (100 mg/kg) were 12% TGI and “tumor regression”, respectively. The “Mean body weight loss on day 28” value in data set [17] (q2 d) is listed as 12%; in data set [17] (q3 d), 8%; in [17] (q4 d), 7%. In addition, the “average loss of starting body weight by day 14” value in [17] (daily dosing, 30 mg/kg and 100 mg/kg dose levels) was 10%.
